Source: patent US20240270737A1, “SMALL MOLECULAR INHIBITORS OF STING SIGNALING COMPOSITIONS AND METHODS OF USE” (STINGINN INC., priority 2021, published 2024)

Assays:
[1] = system: IFNβ expression (type I IFNβ promoter driving luciferase); assay: IFNβ promoter luciferase assay in hTERT-pIFNβ-Glu cells transfected with ISD; assay type: cell-based, human; settings: Homo sapiens
Procedure: Inhibition of IFNβ expression was measured by Luciferase induction at 24 hours after transfection of ISD, DMSO is shown (230), ISD treatment only (220) was used as a control, according to an embodiment of the invention;
Inhibition of IFNβ expression was measured by Luciferase induction at 24 hours after transfection of ISD, Mock is shown (210), ISD treatment only (220) was used as a control, according to an embodiment of the invention;
Identification of small molecule inhibitors of STING. In the presence of cytosolic DNA species, STING becomes activated to drive the transcription of cytokines such as type I IFN. Compounds binding to STING via TSA were subsequently examined for their ability to prevent cytosolic DNA species from activating the type I interferon (IFN) promoter, using a live cell assay. This assay comprised immortalized human fibroblasts (hTERT) that were stably transfected with the type I IFN promoter driving luciferase as well as the CMV promoter driving SEAP (hTERT-pIFNβ-Glu). The live cell assay has previously been disclosed in PCT/US2019/025380 entitled IFN-Beta Reporter System for Immortalized Primary Cells inventor Glen N. Barber, which was filed Apr. 2, 2018 and published as WO2019195285, and which is herein incorporated by reference in its entirety and for all purposes. The ability of the small molecules to prevent activation of the type I IFN promoter and the transcription of luciferase, but not SEAP in response to cytosolic DNA species was assessed. The activation of STING, typically by CDNs, in turn activates the transcription factors NF-κB and IRF3, both of which are required to induce the transcriptional stimulation of the Type I IFN promoter, but not the CMV promoter as IRF3 and NF-kB transcription factor binding sites are not contained in the CMV promoter. The assay identified the small molecule Compound W1 in the first screen (HTS), where the level of luciferase was not able to activate the type I IFN promoter or induce the expression of luciferase (see Table I and Table II).
Inhibition of IFNβ expression was measured by Luciferase induction at 24 hours after transfection of ISD. ISD only treatment was used as control.
Inhibition of IFNβ expression was measured by Luciferase induction at 24 hours after transfection of ISD, Mock is shown (210), ISD treatment only (220) was used as a control.
Luciferase assay: hTERT-BJ1 Telomerase Fibroblasts stably expressing the luciferase gene under the control of the interferon-beta promoter and SEAP gene under control of the CMV promoter) (hTERT-pIFNβ-Glu) were generated by the Barber laboratory. Luciferase assay was performed using Secrete-Pair Dual Luminescence Assay Kit from GeneCopoeia following the manufacturer's protocol.

pIRF3, pSTING = assay: Western blot of pIRF3, pSTING, pTBK1 after ISD transfection in hTERT cells; assay type: cell-based, human; settings: Homo sapiens
Procedure: FIG. 1C are photographs showing Western blot analysis of STING, phospho-TBK1 (pTBK1) and phospho-IRF3 (pIRF3) performed at 6 hours after ISD transfection with/without W1 treatment same as FIG. 1A, Mock is shown (210), ISD treatment only (220) was used as a control, according to an embodiment of the invention;
Immunoblot analysis: Equal amounts of proteins were resolved on sodium dodecyl sulfate (SDS)-Polyacrylamide gels and then transferred to polyvinylidene fluoride (PVDF) membranes (Millipore). After blocking with 5% Blocking Reagent, membranes were incubated with various primary antibodies (and appropriate secondary antibodies). The image was resolved using an enhanced chemiluminescence system ECL (Thermo Scientific) and detected by autoradiography (Kodak). Antibodies: rabbit polyclonal antibody against STING was developed in our laboratory as described previously in Ishikawa et al, 2008; other antibodies were obtained from following sources: β-actin (Sigma Aldrich), p-IRF3 (Cell Signaling), IRF3 (Santa Cruz Biotechnology), p-p65 (Cell Signaling), p65 (Cell Signaling), p-TBK1 (Cell Signaling), TBK1 (Abcam), cGAS (Cell Signaling).

| Compound | inhibition at 5 µM [1] | inhibition at 10 µM (pIRF3, pSTING) |
| --- | --- | --- |
| COc1cccc(-c2nc(CN3CCN(c4cc(C)nc(N(C)C)n4)CC3)cs2)c1 [Compound W8, 4-(4-{[2-(3-methoxyphenyl)-1,3-thiazol-4-yl]methyl}piperazin-1-yl)-N,N,6-trimethylpyrimidin-2-amine] | -59% | – |
| Cc1cc(N2CCN(Cc3coc(-c4ccccc4)n3)CC2)nc(N(C)C)n1 [Compound W18, N,N,4-trimethyl-6-{4-[(2-phenyl-1,3-oxazol-4-yl)methyl]piperazin-1-yl}pyrimidin-2-amine] | -82% | – |
| Cc1cc(N2CCN(Cc3cnc(-c4ccccc4)o3)CC2)nc(N(C)C)n1 [Compound W17, N,N,4-trimethyl-6-{4-[(2-phenyl-1,3-oxazol-5-yl)methyl]piperazin-1-yl}pyrimidin-2-amine] | 2% | – |
| Cc1cc(N2CCN(Cc3csc(-c4ccc(CC(F)(F)F)cc4)n3)CC2)nc(N(C)C)n1 [Compound W33, N.N.4-trimethyl-6-[4-({2-[4-(2.2.2-trifluoroethyl)phenyl]-1.3-thiazol-4-yl}methyl)piperazin-1-yl]pyrimidin-2-amine] | 65% | – |
| CCc1cc(N2CCN(Cc3csc(-c4ccc(OC)c(OC)c4)n3)CC2)nc(N(C)C)n1 [Compound W25, 4-(4-{[2-(3,4-dimethoxyphenyl)-1,3-thiazol-4-yl]methyl}piperazin-1-yl)-6-ethyl-N,N-dimethylpyrimidin-2-amine] | -126% | – |
| COc1ccc(-c2nc(CN3CCN(c4cc(C(F)(F)F)nc(N(C)C)n4)CC3)cs2)cc1OC [Compound W28, 4-(4-{[2-(3,4-dimethoxyphenyl)-1,3-thiazol-4-yl]methyl}piperazin-1-yl)-N,N-dimethyl-6-(trifluoromethyl)pyrimidin-2-amine] | -89% | – |
| CCN(C)c1nc(C)cc(N2CCN(Cc3csc(-c4ccc(OC)c(OC)c4)n3)CC2)n1 [Compound W21, 4-(4-{[2-(3,4-dimethoxyphenyl)-1,3-thiazol-4-yl]methyl}piperazin-1-yl)-N-ethyl-N,6-dimethylpyrimidin-2-amine] | -84% | – |
| Cc1cc(N2CCN(Cc3cnc(-c4ccccc4)s3)CC2)nc(N(C)C)n1 [Compound W19, N,N,4-trimethyl-6-{4-[(2-phenyl-1,3-thiazol-5-yl)methyl]piperazin-1-yl}pyrimidin-2-amine] | 76% | < 10% |
| Cc1cc(N2CCN(Cc3csc(-c4ccccc4)n3)CC2)nc(N(C)C)n1 [Compound W6, N,N,4-trimethyl-6-{4-[(2-phenyl-1,3-thiazol-4-yl)methyl]piperazin-1-yl}pyrimidin-2-amine] | -34% | – |
| Cc1cc(N2CCN(Cc3csc(-c4ccc(S(C)(=O)=O)cc4)n3)CC2)nc(N(C)C)n1 [Compound W12, 4-(4-{[2-(4-methanesulfonylphenyl)-1,3-thiazol-4-yl]methyl}piperazin-1-yl)-N,N,6-trimethylpyrimidin-2-amine] | -40% | – |
| Cc1cc(N2CCN(Cc3csc(-c4ccc(C(F)(F)Cl)cc4)n3)CC2)nc(N(C)C)n1 [Compound W34, 4-[4-({2-[4-(chlorodifluoromethyl)phenyl]-1.3-thiazol-4-yl}methyl)piperazin-1-yl]-N.N.6-trimethylpyrimidin-2-amine] | 50% | – |
| COc1ccc(-c2nc(CN3CCN(c4nc(C)cc(C(C)C)n4)CC3)cs2)cc1OC [Compound W5, 2-(4-{[2-(3,4-dimethoxyphenyl)-1,3-thiazol-4-yl]methyl}piperazin-1-yl)-4-methyl-6-(propan-2-yl)pyrimidine] | 18% | < 10% |
| CNc1nc(C)cc(N2CCN(Cc3csc(-c4ccc(OC)c(OC)c4)n3)CC2)n1 [Compound W23, 4-(4-{[2-(3,4-dimethoxyphenyl)-1,3-thiazol-4-yl]methyl}piperazin-1-yl)-N,6-dimethylpyrimidin-2-amine] | -33% | – |
| COc1cc(C(F)(F)F)ccc1-c1nc(CN2CCN(c3cc(C)nc(N(C)C)n3)CC2)cs1 [Compound W31, 4-[4-({2-[2-methoxy-4-(trifluoromethyl)phenyl]-1.3-thiazol-4-yl}methyl)piperazin-1-yl]-N.N.6-trimethylpyrimidin-2-amine] | 60% | – |
| Cc1cc(N2CCN(Cc3csc(-c4ccc5c(c4)OCC5)n3)CC2)nc(N(C)C)n1 [Compound W35] | 0% | – |
| Cc1cc(N2CCN(Cc3noc(-c4ccccc4)n3)CC2)nc(N(C)C)n1 [Compound W16, N,N,4-trimethyl-6-{4-[(5-phenyl-1,2,4-oxadiazol-3-yl)methyl]piperazin-1-yl}pyrimidin-2-amine] | 26% | – |
| COc1ccc(-c2nc(CN3CCN(c4cc(C)nc(N(C)C)n4)CC3)cs2)cc1 [Compound W7, 4-(4-{[2-(4-methoxyphenyl)-1,3-thiazol-4-yl]methyl}piperazin-1-yl)-N,N,6-trimethylpyrimidin-2-amine] | -11% | – |
| COc1ccc(-c2nc(CN3CCN(c4cc(C)nc(C(C)C)n4)CC3)cs2)cc1OC [Compound W2] | -4% | – |
| Cc1cc(N2CCN(Cc3csc(-c4ccc(C(C)(F)F)cc4)n3)CC2)nc(N(C)C)n1 [Compound W32, 4-[4-({2-[4-(1.1-difluoroethyl)phenyl]-1.3-thiazol-4-yl}methyl)piperazin-1-yl]-N.N.6-trimethylpyrimidin-2-amine] | 70% | – |
| Cc1cc(N2CCN(Cc3csc(-c4ccc5c(c4)OCO5)n3)CC2)nc(N(C)C)n1 [Compound W9, 4-(4-{[2-(2H-1,3-benzodioxol-5-yl)-1,3-thiazol-4-yl]methyl}piperazin-1-yl)-N,N,6-trimethylpyrimidin-2-amine] | -40% | – |
| Cc1cc(N2CCN(Cc3csc(-c4ccc(C(C)C)cc4)n3)CC2)nc(N(C)C)n1 [Compound W29, N.N.4-trimethyl-6-[4-({2-[4-(propan-2-yl)phenyl]-1.3-thiazol-4-yl}methyl)piperazin-1-yl]pyrimidin-2-amine] | 50% | – |
| COc1cc(N2CCN(Cc3csc(-c4ccc(OC)c(OC)c4)n3)CC2)nc(N(C)C)n1 [Compound W27, 4-(4-{[2-(3,4-dimethoxyphenyl)-1,3-thiazol-4-yl]methyl}piperazin-1-yl)-6-methoxy-N,N-dimethylpyrimidin-2-amine] | -64% | – |
| COc1ccc(-c2nc(CN3CCN(c4cc(C(C)C)nc(N(C)C)n4)CC3)cs2)cc1OC [Compound W26, 4-(4-{[2-(3,4-dimethoxyphenyl)-1,3-thiazol-4-yl]methyl}piperazin-1-yl)-N,N-dimethyl-6-(propan-2-yl)pyrimidin-2-amine] | -120% | – |
| COc1ccc(-c2nc(CN3CCN(c4cc(C)nc(N5CCCC5)n4)CC3)cs2)cc1OC [Compound W24, 4-(4-{[2-(3,4-dimethoxyphenyl)-1,3-thiazol-4-yl]methyl}piperazin-1-yl)-6-methyl-2-(pyrrolidin-1-yl)pyrimidine] | -26% | – |
| Cc1cc(N2CCN(Cc3csc(-c4ccc(C#N)cc4)n3)CC2)nc(N(C)C)n1 [Compound W10, 4-[4-({4-[2-(dimethylamino)-6-methylpyrimidin-4-yl]piperazin-1-yl}methyl)-1,3-thiazol-2-yl]benzonitrile] | -62% | – |
| Cc1cc(N2CCN(Cc3csc(-c4ccc(C5CC5)cc4)n3)CC2)nc(N(C)C)n1 [Compound W30, 4-(4-{[2-(4-cyclopropylphenyl)-1.3-thiazol-4-yl]methyl}piperazin-1-yl)-N.N.6-trimethylpyrimidin-2-amine] | 50% | – |
| CCN(CC)c1nc(C)cc(N2CCN(Cc3csc(-c4ccc(OC)c(OC)c4)n3)CC2)n1 [Compound W22, 4-(4-{[2-(3,4-dimethoxyphenyl)-1,3-thiazol-4-yl]methyl}piperazin-1-yl)-N,N-diethyl-6-methylpyrimidin-2-amine] | 28% | – |
